Assay results taken from patent US12697321B2, “Kv1.3 antagonists for use in the treatment of chronic and acute pain” (SEA4US—BIOTECNOLOGIA E RECURSOS MARINHOS, LDA., priority 2019, dated 2026).
Counter-ions that a name gives are not always drawn.

Experiments:
[1] = test system: K^+ currents recorded from a small diameter neuron isolated from a dorsal-root ganglion of the 'affected' side of a CCI rat; assay: Voltage dependence of steady-state inactivation of K+ currents, sdDRG neuron of CCI rat; conditions: CCI rat 28 days after surgery
[2] = test system: CCI rats (chronic constriction of the sciatic nerve of Wistar rats); conditions: for efficacy for short-term/acute and long-term/chronic neuropathic pain: intravenous administration
K^+ currents from sdTGNs = assay: Whole-cell voltage-clamp of K+ currents in small diameter trigeminal ganglion neurons; conditions: dose dependent manner
hKv1.3 = biological target: T1, hKv1.3 (Homo sapiens, UniProt P22001); assay: Whole-cell voltage-clamp on cell lines expressing Kv1.x channels (nitenin); assay type: cell-based
T1 construct: expressed in transfected cells
T1 sequence (P22001 whole entry): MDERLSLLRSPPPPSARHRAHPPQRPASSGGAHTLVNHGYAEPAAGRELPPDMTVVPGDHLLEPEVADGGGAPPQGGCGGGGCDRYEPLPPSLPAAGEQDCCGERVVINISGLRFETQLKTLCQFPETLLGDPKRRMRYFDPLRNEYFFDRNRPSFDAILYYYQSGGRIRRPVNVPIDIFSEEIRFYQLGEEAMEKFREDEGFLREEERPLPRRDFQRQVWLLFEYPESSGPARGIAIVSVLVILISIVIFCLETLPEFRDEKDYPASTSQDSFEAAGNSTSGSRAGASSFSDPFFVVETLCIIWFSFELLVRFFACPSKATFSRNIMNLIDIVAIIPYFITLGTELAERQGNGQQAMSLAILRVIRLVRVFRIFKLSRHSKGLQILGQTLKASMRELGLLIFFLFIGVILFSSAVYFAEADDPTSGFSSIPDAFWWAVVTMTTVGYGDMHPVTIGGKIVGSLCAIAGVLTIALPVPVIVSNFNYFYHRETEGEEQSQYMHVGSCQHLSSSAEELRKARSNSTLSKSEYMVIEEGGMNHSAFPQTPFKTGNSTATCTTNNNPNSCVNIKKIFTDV
Description: In the context of this disclosure, “affinity” relates to the effect on the activity of such channel. Affinity can be measured by voltage clamp recordings of currents evoked by cells that express solely that given channel.
Voltage-clamp recordings under the whole-cell configurations were/are used to measure the ‘amount of inhibition’ of the whole-cell current evoked by a given channel expressed in non-excitable cell lines. Dose responses are obtained by measuring such inhibitions per each concentration. Voltage-activated K+ currents were evoked from mammalian cell lines expressing Kv1.1, Kv1.2, Kv1.3, Kv1.4, Kv1.5, kv1.6 or kv1.7 using standard voltage protocols (Schmitz et al., 2005; Vennekamp et al.).

## O=c1ccc2c(OCCCCOc3ccccc3)c3ccoc3cc2o1 [PAP-1, 5-(4-Phenoxybutoxy)psoralen]
[1]; PAP-1 2 nM, control Vh1=−90.1 mV
  Vh1 (voltage of half maximum current, component 1) of steady-state inactivation: −101.7 mV
[1]; PAP-1 2 nM, control Vh2=−27.8 mV
  Vh2 (voltage of half maximum current, component 2) of steady-state inactivation: −32.6 mV
[2]
  efficacy for short-term/acute and long-term/chronic neuropathic pain: effective
K^+ currents from sdTGNs
  effect on K+ currents from sdTGNs: inhibit the K^+ currents

## C/C(=C\C1C/C(=C/CCc2ccoc2)C(=O)O1)CCCc1ccoc1 (stereo not shown) [nitenin]
[1]; nitenin 0.29 μM, control Vh1=−73.3 mV
  Vh1 (voltage of half maximum current, component 1) of steady-state inactivation: −95.3 mV
[1]; nitenin 0.29 μM, control Vh2=−26.3 mV
  Vh2 (voltage of half maximum current, component 2) of steady-state inactivation: −47.0 mV
[2]
  efficacy for short-term/acute and long-term/chronic neuropathic pain: effective
[2]; nitenin IV, estimated plasma concentration 1 μg/ml, 26 days after surgery, Von Frey
  mechanical sensitivity of the ipsilateral leg at maximum effect: in some instances similar to those obtained during baseline
K^+ currents from sdTGNs
  effect on K+ currents from sdTGNs: inhibit the K^+ currents
hKv1.3
  IC50: ~190 nM

## CN(CCc1ccc(Cl)c(Cl)c1)CC(O)COc1ccc(NS(C)(=O)=O)cc1 (stereo not shown) [AM92016 hydrochloride]
[1]; AM92016 hidrochloride 40 nM, control Vh1=−71.3 mV
  Vh1 (voltage of half maximum current, component 1) of steady-state inactivation: −93.63 mV
[1]; AM92016 hidrochloride 40 nM, control Vh2=−28.2 mV
  Vh2 (voltage of half maximum current, component 2) of steady-state inactivation: −33.6 mV
[2]
  efficacy for short-term/acute and long-term/chronic neuropathic pain: effective
K^+ currents from sdTGNs
  effect on K+ currents from sdTGNs: inhibit the K^+ currents

## O=c1ccc2c(OCCCCc3ccccc3)c3ccoc3cc2o1 [PSORA-4, 4-(4-Phenylbutoxy)-7H-furo[3,2-g][1]benzopyran-7-one]
[2]
  efficacy for short-term/acute and long-term/chronic neuropathic pain: effective
K^+ currents from sdTGNs
  effect on K+ currents from sdTGNs: inhibit the K^+ currents
